Where a name gives a salt, the structure may show the parent alone. Read-outs that look alike come from different tables or passages of the source.

Assay [1] deals with T1, HCV polymerase H544 1b 3X (Hepatitis C virus genotype 1b, UniProt P26663).
T1 construct: a region encoding NS5B (J Virol 1991 March, 65(3), 1105-13, 544 amino acids after deletion of 47 amino acids on the C-terminal); 6 His (C); made in house; host or cells: Escherichia coli
As to the kind of experiment: Assay of enzyme (HCV polymerase) inhibitory activity, H544 1b 3X. In kind it is biochemical, HCV BK strain. An excerpt:
The evaluation of the HCV polymerase inhibitory activity of the compound of the present invention is explained in the following. This polymerase is an enzyme coded for by the non-structural protein region called NS5B on the genome RNA of HCV (EMBO J., 15:12-22, 1996).
Using, as a template, a cDNA clone corresponding to the full length genome RNA of HCV BK strain obtained from the blood of a patient with hepatitis C, a region encoding NS5B (J Virol 1991 March, 65(3), 1105-13, 544 amino acids after deletion of 47 amino acids on the C-terminal) was amplified by PCR. The objective gene was prepared by adding a 6 His tag {base pair encoding 6 continuous histidine (His)} to the 3′ end thereof and transformed to Escherichia coli. The Escherichia coli capable of producing the objective protein was cultured. The obtained cells were suspended in a buffer solution and crushed in a microfluidizer. The supernatant was obtained by centrifugation and applied to various column chromatographys {mono-S, Sephacryl S-200 (Pharmacia)}, inclusive of metal chelate chromatography, to give a standard enzyme product.
Using a synthetic primer designed based on the sequence of HCV genomic 3′ untranslated region, a DNA fragment (148 bp) containing polyU and 3′X sequence was entirely synthesized and cloned into plasmid pBluescript SK II (+) (Stratagene). The cDNA encoding full length NS5B, which was prepared in i) above, was digested with restriction enzyme KpnI to give a cDNA fragment containing the nucleotide sequence of from the restriction enzyme cleavage site to the termination codon. This cDNA fragment was inserted into the upstream of 3′ untranslated region of the DNA in pBluescript SK II(+) and ligated. The about 450 bp inserted DNA sequence was used as a template in the preparation of substrate RNA. This plasmid was cleaved immediately after the 3′X sequence, linearized and purified by phenol-chloroform treatment and ethanol precipitation to give DNA.
RNA was synthesized (37° C., 3 hr) by run-off method using this purified DNA as a template, a promoter of pBluescript SK II(+), MEGAscript RNA synthesis kit (Ambion) and T7 RNA polymerase. DNase I was added and the mixture was incubated for 1 hr. The template DNA was removed by decomposition to give a crude RNA product. This crude product was treated with phenol-chloroform and purified by ethanol precipitation to give the objective substrate RNA.
This RNA was applied to formaldehyde denaturation agarose gel electrophoresis to confirm the quality thereof and preserved at −80° C.
A test substance (compound of the present invention) and a reaction mixture (30 μl) having the following composition were reacted at 25° C. for 90 min. 10% Trichloroacetic acid at 4° C. and 1% sodium pyrophosphate solution (150 μl) were added to this reaction mixture to stop the reaction. The reaction mixture was left standing in ice for 15 min to insolubilize RNA. This RNA was trapped on a glass filter (Whatman GF/C and the like) upon filtration by suction. This filter was washed with a solution containing 1% trichloroacetic acid and 0.1% sodium pyrophosphate, washed with 90% ethanol and dried. A liquid scintillation cocktail (Packard) was added and the radioactivity of RNA synthesized by the enzyme reaction was measured on a liquid scintillation counter.
The HCV polymerase inhibitory activity (IC50) of the compound of the present invention was calculated from the values of radioactivity of the enzyme reaction with and without the test substance.
The results are shown in Table 18, wherein each symbol means that IC50 falls within the following range.
Reaction mixture: HCV polymerase (0.5 μg/ml) obtained in i), substrate RNA (5 μg/ml) obtained in ii), ATP (50 μM), GTP (50 μM), CTP (50 μM), UTP (2 μM), [5,6-^3H] UTP (46 Ci/mmol (Amersham), 1 μCi) 20 mM Tris-HCl (pH 7.5), EDTA (1 mM), MgCl2 (5 mM), NaCl (50 mM), DTT (1 mM), BSA (0.01%)

Assay [2] deals with T2, HCV polymerase H544 1a 3X (UniProt P27958).
T2 construct: fused on or other part: 6 His tag at the C-terminus, for the BK (1b) enzyme
Nature of the assay: Assay of enzyme (HCV polymerase) inhibitory activity, H544 1a 3X. In kind it is biochemical.

Where [3] appears, read: 25° C., 90 min, [5,6-3H]UTP incorporation, read-out: H544 1a 3X IC50.
The mark [4] stands for this setting: read-out: H544 1a 3X IC50, 25° C., 90 min, [5,6-3H]UTP incorporation.

T1 sequence (P26663 2420-2963): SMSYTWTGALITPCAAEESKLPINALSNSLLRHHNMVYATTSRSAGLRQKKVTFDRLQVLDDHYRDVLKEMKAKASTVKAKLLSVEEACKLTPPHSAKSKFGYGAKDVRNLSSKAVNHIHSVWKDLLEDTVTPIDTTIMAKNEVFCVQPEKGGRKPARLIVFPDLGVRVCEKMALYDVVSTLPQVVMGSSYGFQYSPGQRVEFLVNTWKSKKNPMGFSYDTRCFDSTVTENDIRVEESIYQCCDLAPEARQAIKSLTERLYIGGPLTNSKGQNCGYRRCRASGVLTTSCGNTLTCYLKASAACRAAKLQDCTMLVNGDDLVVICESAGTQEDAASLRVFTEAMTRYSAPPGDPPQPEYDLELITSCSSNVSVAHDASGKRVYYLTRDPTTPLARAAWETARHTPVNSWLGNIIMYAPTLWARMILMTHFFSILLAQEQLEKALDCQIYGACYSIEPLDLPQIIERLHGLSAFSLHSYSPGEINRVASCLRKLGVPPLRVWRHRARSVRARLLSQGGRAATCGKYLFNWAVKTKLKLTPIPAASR

Take `Cn1c(-c2ccc(OCc3ccccc3N3CCOCC3)cc2)c(C2CCCCC2)c2sc(C(=O)O)cc21` [Example 31, 6-cyclohexyl-4-methyl-5-[4-(2-morpholinobenzyloxy)phenyl]-4H-thieno[3,2-b]pyrrole-2-carboxylic acid hydrochloride]: the IC50 in assay [1] and in assay [2] (setting [3]) was less than 100 nM throughout.
Take `COc1ccc(-c2c(C3CCCCC3)c3sc(C(=O)O)cc3n2CC(=O)NCc2ccccc2)cc1` [Example 32, 4-(benzylcarbamoylmethyl)-6-cyclohexyl-5-(4-methoxyphenyl)-4H-thieno[3,2-b]pyrrole-2-carboxylic acid]: the IC50 in assay [1] and in assay [2] (setting [3]) was less than 100 nM in each case.
As for `COc1ccc(-c2c(C3CCCCC3)c3sc(C(=O)O)cc3n2CC(=O)NC(C)(C)C)cc1` [Example 33, 4-(tert-butylcarbamoylmethyl)-6-cyclohexyl-5-(4-methoxyphenyl)-4H-thieno[3,2-b]pyrrole-2-carboxylic acid], the IC50 in assay [1] is 100 to 1000 nM; in assay [2] (setting [3]), less than 100 nM.
Take `Cn1c(-c2ccc(OCc3ccc(N4CCCC4=O)cc3N3CCOCC3)cc2)c(C2CCCCC2)c2sc(C(=O)O)cc21` [Example 34, 6-cyclohexyl-4-methyl-5-{4-[2-morpholino-4-(2-oxopyrrolidin-1-yl)benzyloxy]phenyl}-4H-thieno[3,2-b]pyrrole-2-carboxylic acid hydrochloride]: the IC50 in assay [1] and in assay [2] (setting [3]) was less than 100 nM throughout.
Consider `Cn1c(-c2ccccc2OCc2ccccc2)c(C2CCCCC2)c2sc(C(=O)O)cc21` [Example 35, 5-(2-benzyloxyphenyl)-6-cyclohexyl-4-methyl-4H-thieno[3,2-b]pyrrole-2-carboxylic acid], for which the IC50 in assay [1] and in assay [2] (setting [3]) was 100 to 1000 nM each time.
In the case of `CN(C)C(=O)Cn1c(-c2ccccc2OCc2ccccc2)c(C2CCCCC2)c2sc(C(=O)O)cc21` [Example 36, 5-(2-benzyloxyphenyl)-6-cyclohexyl-4-dimethylcarbamoylmethyl-4H-thieno[3,2-b]pyrrole-2-carboxylic acid], the IC50 in assay [1] and in assay [2] (setting [3]) was 100 to 1000 nM in each case.
With `CN(C)C(=O)Cn1c(-c2ccc(OC3CCCN(C(=O)OC(C)(C)C)C3)cc2)c(C2CCCCC2)c2sc(C(=O)O)cc21` (centres unmarked) [Example 37, 5-[4-(1-tert-butoxycarbonylpiperidin-3-yloxy)phenyl]-6-cyclohexyl-4-dimethylcarbamoylmethyl-4H-thieno[3,2-b]pyrrole-2-carboxylic acid], the IC50 in assay [1] and in assay [2] (setting [3]) was less than 100 nM each time.
As for `CN(C)C(=O)Cn1c(-c2ccc(OCc3ccccc3N3CCOCC3)cc2)c(C2CCCCC2)c2sc(C(=O)O)cc21` [Example 38, 6-cyclohexyl-4-dimethylcarbamoylmethyl-5-[4-(2-morpholinobenzyloxy)phenyl]-4H-thieno[3,2-b]pyrrole-2-carboxylic acid], the IC50 in assay [1] and in assay [2] (setting [3]) was less than 100 nM in each case.
As for `CN(C)C(=O)Cn1c(-c2ccc(OC3CCN(C(=O)OC(C)(C)C)CC3)cc2)c(C2CCCCC2)c2sc(C(=O)O)cc21` [Example 39, 5-[4-(1-tert-butoxycarbonylpiperidin-4-yloxy)phenyl]-6-cyclohexyl-4-dimethylcarbamoylmethyl-4H-thieno[3,2-b]pyrrole-2-carboxylic acid], the figures for the IC50 in assay [1] and in assay [2] (setting [3]) were less than 100 nM and 100 to 1000 nM, respectively.
Take `CN(C)CC(=O)Nc1ccc(N2CCOCC2)c(COc2ccc(-c3c(C4CCCCC4)c4sc(C(=O)O)cc4n3C)cc2)c1` [Example 40, 6-cyclohexyl-5-{4-[5-(2-dimethylaminoacetylamino)-2-morpholinobenzyloxy]phenyl}-4-methyl-4H-thieno[3,2-b]pyrrole-2-carboxylic acid dihydrochloride]: the IC50 in assay [1] and in assay [2] (setting [4]) was less than 100 nM each time.
Regarding `Cn1c(-c2ccc(OCc3cc(NC(=O)CN4CCOCC4)ccc3N3CCOCC3)cc2)c(C2CCCCC2)c2sc(C(=O)O)cc21` [Example 41, 6-cyclohexyl-4-methyl-5-{4-[2-morpholino-5-(2-morpholinoacetylamino)benzyloxy]phenyl}-4H-thieno[3,2-b]pyrrole-2-carboxylic acid dihydrochloride], the IC50 in assay [1] and in assay [2] (setting [4]) was less than 100 nM each time.
As to `CN(C)C(=O)Cn1c(-c2ccc(Oc3ccccc3)cc2)c(C2CCCCC2)c2sc(C(=O)O)cc21` [Example 42, 6-cyclohexyl-4-dimethylcarbamoylmethyl-5-(4-phenoxyphenyl)-4H-thieno[3,2-b]pyrrole-2-carboxylic acid], the IC50 in assay [1] and in assay [2] (setting [3]) was less than 100 nM in each case.
For the molecule `CN(C)CC(=O)N(C)c1ccc(N2CCOCC2)c(COc2ccc(-c3c(C4CCCCC4)c4sc(C(=O)O)cc4n3C)cc2)c1` [Example 43, 6-cyclohexyl-5-(4-{5-[N-(2-dimethylaminoacetyl)-N-methylamino]-2-morpholinobenzyloxy}phenyl)-4-methyl-4H-thieno[3,2-b]pyrrole-2-carboxylic acid dihydrochloride], the IC50 in assay [1] and in assay [2] (setting [4]) was less than 100 nM each time.
`CC(C)(C)NC(=O)Cn1c(-c2ccc(OCc3ccccc3)cc2)c(C2CCCCC2)c2sc(C(=O)O)cc21` [Example 44, 5-(4-benzyloxyphenyl)-4-(tert-butylcarbamoylmethyl)-6-cyclohexyl-4H-thieno[3,2-b]pyrrole-2-carboxylic acid]: the IC50 in assay [1] and in assay [2] (setting [3]) was 100 to 1000 nM in each case.
In the case of `O=C(O)c1cc2c(s1)c(C1CCCCC1)c(-c1ccc(OCc3ccccc3)cc1)n2Cc1ccccc1` [Example 45, 4-benzyl-5-(4-benzyloxyphenyl)-6-cyclohexyl-4H-thieno[3,2-b]pyrrole-2-carboxylic acid], the IC50 in assay [1] and in assay [2] (setting [3]) was 100 to 1000 nM in each case.
For the molecule `CN(C)CCn1c(-c2ccc(OCc3ccccc3)cc2)c(C2CCCCC2)c2sc(C(=O)O)cc21` [Example 46, 5-(4-benzyloxyphenyl)-6-cyclohexyl-4-(2-dimethylaminoethyl)-4H-thieno[3,2-b]pyrrole-2-carboxylic acid], the IC50 in assay [1] and in assay [2] (setting [3]) was 100 to 1000 nM in each case.
Take `O=C(O)c1cc2c(s1)c(C1CCCCC1)c(-c1ccc(OCc3ccccc3)cc1)n2CCN1CCOCC1` [Example 47, 5-(4-benzyloxyphenyl)-6-cyclohexyl-4-(2-morpholinoethyl)-4H-thieno[3,2-b]pyrrole-2-carboxylic acid]: the IC50 in assay [1] and in assay [2] (setting [3]) was 100 to 1000 nM each time.
In the case of `O=C(O)c1cc2c(s1)c(C1CCCCC1)c(-c1ccc(OCc3ccccc3)cc1)n2CC1CCCCC1` [Example 48, 5-(4-benzyloxyphenyl)-6-cyclohexyl-4-cyclohexylmethyl-4H-thieno[3,2-b]pyrrole-2-carboxylic acid], the IC50 in assay [1] and in assay [2] (setting [3]) was 100 to 1000 nM each time.
Consider `COCCn1c(-c2ccc(OCc3ccccc3)cc2)c(C2CCCCC2)c2sc(C(=O)O)cc21` [Example 49, 5-(4-benzyloxyphenyl)-6-cyclohexyl-4-(2-methoxyethyl)-4H-thieno[3,2-b]pyrrole-2-carboxylic acid], for which the IC50 in assay [1] and in assay [2] (setting [3]) was 100 to 1000 nM each time.
